In patent US7462600B2, “Macrolides” (Pfizer Inc, priority 2004, dated 2008):
≈ marks a conversion by molar mass, not a printed value.

What was measured:
Format in all cases: cell-based
[1] = tested on: Streptococcus pyogenes 1079; experiment: MIC, microtiter broth dilution (NCCLS M100-S14), S. pyogenes 1079 (ermB); settings: Streptococcus pyogenes 1079
In short: (§1)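 Microtiter broth dilution; interpretation per NCCLS M100-S14; endpoint = MIC. Stock: 40 mg/ml in DMSO.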

[2] = tested on: Streptococcus pneumoniae 1016; experiment: MIC, microtiter broth dilution (NCCLS M100-S14), S. pneumoniae 1016 (susceptible); settings: Streptococcus pneumoniae 1016
In short: as §1

[3] = tested on: Streptococcus pneumoniae 1095; settings: Streptococcus pneumoniae 1095; microtiter broth dilution
In short: as §1

[4] = tested on: Streptococcus pneumoniae 1175; settings: Streptococcus pneumoniae 1175; microtiter broth dilution
In short: as §1

[5] = tested on: Haemophilus influenzae 1218; experiment: MIC, microtiter broth dilution (NCCLS M100-S14), H. influenzae 1218 (susceptible); settings: Haemophilus influenzae 1218
In short: as §1

SMILES | MIC S. pyogenes 1079 [1] [mg/L] | MIC S. pneumo. 1016 [2] [mg/L] | MIC S. pneumo. 1095 [3] [mg/L] | MIC S. pneumo. 1175 [4] [mg/L] | MIC H. influenzae 1218 [5] [mg/L]
CCC1OC(=O)C(C)C(=O)C(C)C(OC2OC(C)CC(N(C)C)C2O)C(C)(OC)CC(C)C(=O)C(C)C2N(C3CN(S(=O)(=O)c4ccc(-c5cnco5)cc4)C3)C(=O)OC12C (stereo not drawn) [Example 3.13, 3-descladinosyl-11,12-dideoxy-6-O-methyl-3-oxo-12,11-(oxycarbonyl-(1-(4-(oxazol-5-yl)-benzenesulfonyl)-azetidin-3-yl)-imino)-erythromycin A] | 4 (≈ 4.57 µM) | <0.06 | 0.12 (≈ 0.137 µM) | <0.06 | 0.25 (≈ 0.286 µM)
CCC1OC(=O)C(C)C(=O)C(C)C(OC2OC(C)CC(N(C)C)C2O)C(C)(OC)CC(C)C(=O)C(C)C2N(C3CN(S(=O)(=O)c4ccc(-n5nc(C)c(=O)[nH]c5=O)cc4)C3)C(=O)OC12C (stereo not drawn) [Example 3.14, 4-(4,5-dihydro-6-methyl-3,5-dioxo-1,2,4-triazin-2(3H)-yl)benzenesulfonyl] | >64.00 | <0.06 | 1 (≈ 1.07 µM) | 1 (≈ 1.07 µM) | 1 (≈ 1.07 µM)
CCC1OC(=O)C(C)C(=O)C(C)C(OC2OC(C)CC(N(C)C)C2O)C(C)(OC)CC(C)C(=O)C(C)C2N(C3CN(S(=O)(=O)c4cnc5ccccn45)C3)C(=O)OC12C (stereo not drawn) [Example 3.15, 3-descladinosyl-11,12-dideoxy-6-O-methyl-3-oxo-12,11-(oxycarbonyl-(1-(H-imidazo[1,2-a]pyridine-3-sulfonyl)-azetidin-3-yl)-imino)-erythromycin A] | 1 (≈ 1.18 µM) | <0.06 | <0.06 | <0.06 | 0.25 (≈ 0.295 µM)
CCC1OC(=O)C(C)C(=O)C(C)C(OC2OC(C)CC(N(C)C)C2O)C(C)(OC)CC(C)C(=O)C(C)C2N(C3CN(S(=O)(=O)c4ccc(-n5cccn5)nc4)C3)C(=O)OC12C (stereo not drawn) [Example 3.16, 3-descladinosyl-11,12-dideoxy-6-O-methyl-3-oxo-12,11-(oxycarbonyl-(1-(6-(1H-pyrazol-1-yl)pyridine-3-sulfonyl)-azetidin-3-yl)-imino)-erythromycin A] | 1 (≈ 1.14 µM) | <0.06 | <0.06 | <0.06 | 0.5 (≈ 0.571 µM)
CCC1OC(=O)C(C)C(=O)C(C)C(OC2OC(C)CC(N(C)C)C2O)C(C)(OC)CC(C)C(=O)C(C)C2N(C3CN(S(=O)(=O)c4cnc5ncccn45)C3)C(=O)OC12C (stereo not drawn) [Example 3.17, 3-descladinosyl-11,12-dideoxy-6-O-methyl-3-oxo-12,11-(oxycarbonyl-(1-(imidazo[1,2-a]pyrimidine-3-sulfonyl)-azetidin-3-yl)-imino)-erythromycin A] | 4 (≈ 4.71 µM) | <0.06 | <0.06 | 0.12 (≈ 0.141 µM) | 0.5 (≈ 0.589 µM)
CCC1OC(=O)C(C)C(=O)C(C)C(OC2OC(C)CC(N(C)C)C2O)C(C)(OC)CC(C)C(=O)C(C)C2N(C3CN(S(=O)(=O)c4ccccc4C#N)C3)C(=O)OC12C (stereo not drawn) [Example 3.18, 3-descladinosyl-11,12-dideoxy-6-O-methyl-3-oxo-12,11-(oxycarbonyl-(1-(2-cyanobenzenesulfonyl)-azetidin-3-yl)-imino)-erythromycin A] | 2 (≈ 2.4 µM) | <0.06 | 1 (≈ 1.2 µM) | <0.06 | 0.12 (≈ 0.144 µM)
CCC1OC(=O)C(C)C(=O)C(C)C(OC2OC(C)CC(N(C)C)C2O)C(C)(OC)CC(C)C(=O)C(C)C2N(C3CN(S(=O)(=O)c4ncn5ccccc45)C3)C(=O)OC12C (stereo not drawn) [Example 3.19, 3-descladinosyl-11,12-dideoxy-6-O-methyl-3-oxo-12,11-(oxycarbonyl-(1-(H-imidazo[1,5-a]pyridine-1-sulfonyl)-azetidin-3-yl)-imino)-erythromycin A] | 1 (≈ 1.18 µM) | <0.06 | <0.06 | <0.06 | 0.25 (≈ 0.295 µM)
CCC1OC(=O)C(C)C(=O)C(C)C(OC2OC(C)CC(N(C)C)C2O)C(C)(OC)CC(C)C(=O)C(C)C2N(C3CN(S(=O)(=O)c4ccc(-c5n[nH]c(=O)[nH]c5=O)cc4)C3)C(=O)OC12C (stereo not drawn) [Example 3.20, 3-descladinosyl-11,12-dideoxy-6-O-methyl-3-oxo-12,11-(oxycarbonyl-(1-(4-(2,3,4,5-tetrahydro-3,5-dioxo-1,2,4-triazin-6-yl)benzenesulfonyl)-azetidin-3-yl)-imino)-erythromycin A] | 8 (≈ 8.7 µM) | <0.06 | <0.06 | 2 (≈ 2.18 µM) | 0.5 (≈ 0.544 µM)
CCC1OC(=O)C(C)C(=O)C(C)C(OC2OC(C)CC(N(C)C)C2O)C(C)(OC)CC(C)C(=O)C(C)C2N(C3CN(S(=O)(=O)c4cnn(-c5ccccn5)c4)C3)C(=O)OC12C (stereo not drawn) [Example 3.21, 1-(pyridin-2-yl)-1H-pyrazole-4-sulfonyl] | >64.00 | <0.06 | <0.06 | <0.06 | 1 (≈ 1.14 µM)
CCC1OC(=O)C(C)C(=O)C(C)C(OC2OC(C)CC(N(C)C)C2O)C(C)(OC)CC(C)C(=O)C(C)C2N(C3CN(S(=O)(=O)c4ccc5oc(=O)[nH]c5c4)C3)C(=O)OC12C (stereo not drawn) [Example 3.22, 3-descladinosyl-11,12-dideoxy-6-O-methyl-3-oxo-12,11-(oxycarbonyl-(1-(2,3-dihydro-2-oxobenzo[d]oxazole-5-sulfonyl)-azetidin-3-yl)-imino)-erythromycin A] | 1 (≈ 1.16 µM) | <0.06 | 4 (≈ 4.62 µM) | 0.5 (≈ 0.578 µM) | 0.25 (≈ 0.289 µM)
CCC1OC(=O)C(C)C(=O)C(C)C(OC2OC(C)CC(N(C)C)C2O)C(C)(OC)CC(C)C(=O)C(C)C2N(C3CN(S(=O)(=O)c4ccc(S(C)(=O)=O)cc4)C3)C(=O)OC12C (stereo not drawn) [Example 3.23, 4-(methylsulfonyl) benzenesulfonyl] | >64.00 | <0.06 | 0.25 (≈ 0.282 µM) | <0.06 | 1 (≈ 1.13 µM)
CCC1OC(=O)C(C)C(=O)C(C)C(OC2OC(C)CC(N(C)C)C2O)C(C)(OC)CC(C)C(=O)C(C)C2N(C3CN(S(=O)(=O)c4ccccc4S(C)(=O)=O)C3)C(=O)OC12C (stereo not drawn) [Example 3.25, 2-(methylsulfonyl) benzenesulfonyl] | >64.00 | <0.06 | <0.06 | 0.25 (≈ 0.282 µM) | 1 (≈ 1.13 µM)
CCC1OC(=O)C(C)C(=O)C(C)C(OC2OC(C)CC(N(C)C)C2O)C(C)(OC)CC(C)C(=O)C(C)C2N(C3CN(S(=O)(=O)c4ccc(Oc5ccncc5)cc4)C3)C(=O)OC12C (stereo not drawn) [Example 3.26] | 64 (≈ 71 µM) | <0.06 | <0.06 | 8 (≈ 8.88 µM) | 4 (≈ 4.44 µM)
CCC1OC(=O)C(C)C(=O)C(C)C(OC2OC(C)CC(N(C)C)C2O)C(C)(OC)CC(C)C(=O)C(C)C2N(C3CN(S(=O)(=O)c4ccc(Oc5cccnc5)cc4)C3)C(=O)OC12C (stereo not drawn) [Example 3.27, 4-(pyridin-3-yloxy) benzenesulfonyl] | 32 (≈ 35.5 µM) | <0.06 | <0.06 | <0.06 | 1 (≈ 1.11 µM)
CCC1OC(=O)C(C)C(=O)C(C)C(OC2OC(C)CC(N(C)C)C2O)C(C)(OC)CC(C)C(=O)C(C)C2N(C3CN(S(=O)(=O)c4cn(C)c(C)n4)C3)C(=O)OC12C (stereo not drawn) [Example 3.28] | >64.00 | <0.06 | <0.06 | 4 (≈ 4.84 µM) | 1 (≈ 1.21 µM)
CCC1OC(=O)C(C)C(=O)C(C)C(OC2OC(C)CC(N(C)C)C2O)C(C)(OC)CC(C)C(=O)C(C)C2N(C3CN(S(=O)(=O)c4c(C)n[nH]c4C)C3)C(=O)OC12C (stereo not drawn) [Example 3.29, 3-descladinosyl-11,12-dideoxy-6-O-methyl-3-oxo-12,11-(oxycarbonyl-(1-(3,5-dimethyl-1H-pyrazole-4-sulfony)-azetidin-3-yl)-imino)-erythromycin A] | 8 (≈ 9.68 µM) | <0.06 | <0.06 | 0.5 (≈ 0.605 µM) | 0.25 (≈ 0.303 µM)
CCC1OC(=O)C(C)C(=O)C(C)C(OC2OC(C)CC(N(C)C)C2O)C(C)(OC)CC(C)C(=O)C(C)C2N(C3CN(S(=O)(=O)c4c[nH]c(=O)[nH]c4=O)C3)C(=O)OC12C (stereo not drawn) [Example 3.30, 1,2,3,4-tetrahydro-2,4-dioxopyrimidine-5-sulfonyl] | >64.00 | 1 (≈ 1.19 µM) | >64.00 | 32 (≈ 38 µM) | 32 (≈ 38 µM)
CCC1OC(=O)C(C)C(=O)C(C)C(OC2OC(C)CC(N(C)C)C2O)C(C)(OC)CC(C)C(=O)C(C)C2N(C3CN(S(=O)(=O)c4ccc(OC)cc4OC)C3)C(=O)OC12C (stereo not drawn) [Example 3.31, 3-descladinosyl-11,12-dideoxy-6-O-methyl-3-oxo-12,11-(1-(oxycarbonyl-(2,4-dimethoxybenzenesulfonyl)-azetidin-3-yl)-imino)-erythromycin A] | 4 (≈ 4.61 µM) | <0.06 | 2 (≈ 2.3 µM) | 0.12 (≈ 0.138 µM) | 0.5 (≈ 0.576 µM)
